Results: the supplement of paper PMC10307832

The cell lines below were run with C[C@@]1(C(=O)Nc2ccc(F)nc2)CCCN1c1nc(Nc2cc(C3CC3)n[nH]2)c2cccn2n1 + Nc1ncn([C@H]2C[C@H](O)[C@@H](CO)O2)c(=O)n1 [Decitabine] (partner 2 µM) (assay: relative viability (nuclei count vs DMSO), 5 days (fraction); higher = more cells survive). Details: first compound 0.4 µM.
Procedure, shortened: (§1)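 Lung cancer cell lines were seeded in 1536-well plates and dosed by pin tool the next day, with either a single drug or a fixed anchor-drug dose combined with five library-drug doses (not always all listed) spaced in √10 steps. Five days later, one step fixed the cells and stained their nuclei (final 0.05% Triton X-100, 1% formaldehyde, 1 ug/ml Hoechst), and nuclei were counted on 4× images. Relative viability is the nuclei count in treated wells divided by the count in vehicle wells, and each value is the median of duplicate plates.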

Cell Line | relative viability
H3255 | 0.521
COR-L23 | 0.315
COR-L 105 | 0.541
LOU-NH91 | 0.744
ChaGo-K-1 | 0.499
A549 | 0.326
NCI-H522 | 0.591
SW 900 | 0.351
NCI-H2009 | 0.406
NCI-H661 | 0.54
SK-LU-1 | 0.489
NCI-H2023 | 0.177

Same assay, conditions: first compound 1.265 µM

Cell Line | relative viability
NCI-H2342 | 0.671
NCI-H727 | 0.362
NCI-H1650 | 0.447
NCI-H1993 | 0.458
SW 1573 | 0.177
NCI-H838 | 0.335
LCLC-103H | 0.712
NCI-H520 | 0.491
NCI-H2126 | 0.471
EMC-BAC-2 | 0.717
NCI-H2085 | 0.528
HCC-366 | 0.265
NCI-H1666 | 0.492
NCI-H596 | 0.912
LK-2 | 0.162
NCI-H2087 | 0.16
NCI-H1648 | 0.361
SK-MES-1 | 0.344
H3255 | 0.65
COR-L23 | 0.267
COR-L 105 | 0.588
LOU-NH91 | 0.771
ChaGo-K-1 | 0.503
A549 | 0.199
NCI-H522 | 0.639
SW 900 | 0.349
NCI-H2009 | 0.313
NCI-H661 | 0.547
SK-LU-1 | 0.524
NCI-H2023 | 0.139

The cell lines below were run with C[C@@]1(C(=O)Nc2ccc(F)nc2)CCCN1c1nc(Nc2cc(C3CC3)n[nH]2)c2cccn2n1 + CS(=O)(=O)N1CCN(Cc2cc3nc(-c4cccc5[nH]ncc45)nc(N4CCOCC4)c3s2)CC1 [Pictilisib] (partner 1 µM) in the same assay as above. Details: first compound 0.04 µM.
Procedure, shortened: as §1

Cell Line | relative viability
NCI-H727 | 0.328
NCI-H1650 | 0.561
EBC-1 | 0.32
NCI-H1703 | 0.25
NCI-H1993 | 0.906
SW 1573 | 0.438
NCI-H838 | 0.514
LCLC-103H | 0.501
NCI-H520 | 0.317
NCI-H2126 | 0.456
EMC-BAC-2 | 0.514
NCI-H2085 | 0.487
Calu-6 | 0.965
HCC-366 | 0.105
NCI-H1666 | 0.364
NCI-H596 | 0.378
LK-2 | 0.574

Cell Line | relative viability
NCI-H2087 | 0.896
SK-MES-1 | 0.335
H3255 | 0.49
COR-L23 | 0.518
COR-L 105 | 0.414
IA-LM | 0.175
LOU-NH91 | 0.492
ChaGo-K-1 | 0.643
A549 | 0.283
NCI-H2009 | 0.824
NCI-H661 | 0.432
SK-LU-1 | 0.546
NCI-H1299 | 0.752
CAL-12T | 0.41
NCI-H2228 | 0.216
NCI-H2023 | 0.197
NCI-H1563 | 0.625

Same assay, conditions: first compound 0.1265 µM

Cell Line | relative viability
NCI-H727 | 0.179
NCI-H1650 | 0.489
EBC-1 | 0.231
NCI-H1703 | 0.224
SW 1573 | 0.251
NCI-H838 | 0.379
LCLC-103H | 0.497
NCI-H520 | 0.298
NCI-H2126 | 0.392
EMC-BAC-2 | 0.498
NCI-H2085 | 0.46
Calu-6 | 0.833
HCC-366 | 0.104
NCI-H1666 | 0.378
NCI-H596 | 0.349
LK-2 | 0.565
NCI-H2087 | 0.783

Cell Line | relative viability
SK-MES-1 | 0.268
H3255 | 0.423
COR-L23 | 0.463
COR-L 105 | 0.328
IA-LM | 0.261
LOU-NH91 | 0.478
ChaGo-K-1 | 0.662
A549 | 0.292
NCI-H2009 | 0.765
NCI-H661 | 0.355
SK-LU-1 | 0.453
NCI-H1299 | 0.844
CAL-12T | 0.395
NCI-H2228 | 0.175
NCI-H2023 | 0.129
NCI-H1563 | 0.614

Same assay, conditions: first compound 0.4 µM

Cell Line | relative viability
NCI-H727 | 0.306
NCI-H1650 | 0.533
EBC-1 | 0.241
NCI-H1703 | 0.227
NCI-H1993 | 0.803
SW 1573 | 0.377
NCI-H838 | 0.263
LCLC-103H | 0.366
NCI-H520 | 0.284
NCI-H2126 | 0.394
EMC-BAC-2 | 0.358
NCI-H2085 | 0.469
Calu-6 | 0.695
HCC-366 | 0.101
NCI-H1666 | 0.447
NCI-H596 | 0.335
LK-2 | 0.569

Cell Line | relative viability
NCI-H2087 | 0.792
SK-MES-1 | 0.286
H3255 | 0.415
COR-L23 | 0.31
COR-L 105 | 0.26
IA-LM | 0.125
LOU-NH91 | 0.452
ChaGo-K-1 | 0.849
A549 | 0.172
NCI-H2009 | 0.653
NCI-H661 | 0.408
SK-LU-1 | 0.428
NCI-H1299 | 0.669
CAL-12T | 0.463
NCI-H2228 | 0.198
NCI-H2023 | 0.118
NCI-H1563 | 0.596

Same assay, conditions: first compound 1.265 µM

Cell Line | relative viability
NCI-H727 | 0.155
NCI-H1650 | 0.403
EBC-1 | 0.162
NCI-H1703 | 0.213
NCI-H1993 | 0.812
SW 1573 | 0.455
NCI-H838 | 0.365
LCLC-103H | 0.441
NCI-H520 | 0.361
NCI-H2126 | 0.436
EMC-BAC-2 | 0.495
NCI-H2085 | 0.495
Calu-6 | 0.425
HCC-366 | 0.12
NCI-H1666 | 0.38
NCI-H596 | 0.316
LK-2 | 0.523

Cell Line | relative viability
NCI-H2087 | 0.7
SK-MES-1 | 0.306
H3255 | 0.371
COR-L23 | 0.335
COR-L 105 | 0.241
IA-LM | 0.179
LOU-NH91 | 0.448
ChaGo-K-1 | 0.371
A549 | 0.148
NCI-H2009 | 0.717
SK-LU-1 | 0.502
NCI-H1299 | 0.286
CAL-12T | 0.304
NCI-H2228 | 0.246
NCI-H2023 | 0.146
NCI-H1563 | 0.598

What follows are cell lines tested with C[C@@]1(C(=O)Nc2ccc(F)nc2)CCCN1c1nc(Nc2cc(C3CC3)n[nH]2)c2cccn2n1 + NC(=O)Nc1cc(-c2cccc(F)c2)sc1C(=O)N[C@H]1CCCNC1 [AZD7762] (partner 0.2 µM) in the same assay as above. Details: first compound 0.04 µM.
Procedure, shortened: as §1

Cell Line | relative viability
NCI-H2342 | 0.475
NCI-H727 | 0.573
NCI-H1703 | 0.145
NCI-H1993 | 0.495
NCI-H838 | 0.981
LCLC-103H | 0.7
NCI-H2126 | 0.993
EMC-BAC-2 | 1.14
NCI-H2085 | 1.12
HCC-366 | 0.356
NCI-H1666 | 0.838
NCI-H596 | 1.1
LK-2 | 0.179
NCI-H2087 | 1.26
NCI-H1648 | 0.671
H3255 | 0.96
LOU-NH91 | 0.683
ChaGo-K-1 | 0.845
NCI-H522 | 0.678
SW 900 | 0.541
CAL-12T | 0.659

Same assay, conditions: first compound 0.1265 µM

Cell Line | relative viability
NCI-H2342 | 0.375
NCI-H727 | 0.386
NCI-H1703 | 0.111
NCI-H1993 | 0.496
NCI-H838 | 0.918
LCLC-103H | 0.748
NCI-H2126 | 0.716
EMC-BAC-2 | 0.644
NCI-H2085 | 0.948
HCC-366 | 0.31
NCI-H1666 | 0.667
NCI-H596 | 1.07
LK-2 | 0.203
NCI-H2087 | 1.25
NCI-H1648 | 0.608
H3255 | 0.931
LOU-NH91 | 0.723
ChaGo-K-1 | 0.815
NCI-H522 | 0.539
SW 900 | 0.688
CAL-12T | 0.765

Same assay, conditions: first compound 0.4 µM

Cell Line | relative viability
NCI-H2342 | 0.404
NCI-H727 | 0.443
NCI-H1703 | 0.13
NCI-H1993 | 0.455
NCI-H838 | 0.814
LCLC-103H | 0.6
NCI-H2126 | 0.569
EMC-BAC-2 | 0.679
NCI-H2085 | 0.927
HCC-366 | 0.293
NCI-H1666 | 0.642
NCI-H596 | 0.94
NCI-H2087 | 1.09
NCI-H1648 | 0.586
H3255 | 0.811
LOU-NH91 | 0.626
ChaGo-K-1 | 0.862
NCI-H522 | 0.791
SW 900 | 0.5
CAL-12T | 0.78

Same assay, conditions: first compound 1.265 µM

Cell Line | relative viability
NCI-H2342 | 0.323
NCI-H727 | 0.345
NCI-H1703 | 0.12
NCI-H1993 | 0.567
NCI-H838 | 0.872
LCLC-103H | 0.691
NCI-H2126 | 0.648
EMC-BAC-2 | 0.54
NCI-H2085 | 0.913
HCC-366 | 0.152
NCI-H1666 | 0.552
NCI-H596 | 1.19
LK-2 | 0.179
NCI-H2087 | 1.23
NCI-H1648 | 0.676
H3255 | 0.855
LOU-NH91 | 0.642
ChaGo-K-1 | 0.841
NCI-H522 | 0.821
SW 900 | 0.561
CAL-12T | 0.677
